Measured values published in the supplement of paper PMC10307832.

Assays:
Assay in all cases: relative viability (nuclei count vs DMSO), 5 days (fraction); higher = more cells survive
[1] = compound: CCN1C(=O)C2=CC(=C(N=C2N(C1=O)C3CC3)N)C(=O)N
Outline: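 Five library-drug doses spaced by √10 were pinned onto vehicle-anchored 1536-well plates of lung cancer cell lines that had been kept overnight at 37 °C. Cells went 5 days without medium change, then were fixed, permeabilised and Hoechst-stained together, imaged at 4× and counted by MetaXpress. Viability is the ratio of treated-well to vehicle-well nuclei, taken as a median over plates. Plates required control CV below 25% and at least one doubling.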

[2] = compound: CCN1C(=O)C2=CC(=C(N=C2N(C1=O)C3CC3)N)C(=O)N + N=C(N)NC(=N)NCCc1ccccc1 [Phenformin] (partner 250 µM)
Outline: (§1)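 Lung cancer cell lines were seeded in 1536-well plates and dosed by pin tool the next day, with either a single drug or a fixed anchor-drug dose combined with five library-drug doses (not always all listed) spaced in √10 steps. Five days later, one step fixed the cells and stained their nuclei (final 0.05% Triton X-100, 1% formaldehyde, 1 ug/ml Hoechst), and nuclei were counted on 4× images. Relative viability is the nuclei count in treated wells divided by the count in vehicle wells, and each value is the median of duplicate plates.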

[3] = compound: CCN1C(=O)C2=CC(=C(N=C2N(C1=O)C3CC3)N)C(=O)N + COc1cc2c(Oc3ccc(NC(=O)C4(C(=O)Nc5ccc(F)cc5)CC4)cc3F)ccnc2cc1OCCCN1CCOCC1 [Foretinib] (partner 0.25 µM)
Outline: as §1

[4] = compound: CCN1C(=O)C2=CC(=C(N=C2N(C1=O)C3CC3)N)C(=O)N + Cc1nc(Nc2ncc(C(=O)Nc3c(C)cccc3Cl)s2)cc(N2CCN(CCO)CC2)n1 [Dasatinib] (partner 0.075 µM)
Outline: as §1

[5] = compound: CCN1C(=O)C2=CC(=C(N=C2N(C1=O)C3CC3)N)C(=O)N + CCNC(=O)c1noc(-c2cc(C(C)C)c(O)cc2O)c1-c1ccc(CN2CCOCC2)cc1 [Luminespib] (partner 0.01 µM)
Outline: as §1

[6] = compound: CCN1C(=O)C2=CC(=C(N=C2N(C1=O)C3CC3)N)C(=O)N + Cc1cc(Nc2cc(N3CCN(C)CC3)nc(Sc3ccc(NC(=O)C4CC4)cc3)n2)n[nH]1 [Tozasertib] (partner 0.1 µM)
Outline: as §1

[7] = compound: CCN1C(=O)C2=CC(=C(N=C2N(C1=O)C3CC3)N)C(=O)N + COc1cccc2cc(-c3nc([C@H]4CC[C@H](C(=O)O)CC4)n4ncnc(N)c34)[nH]c12 [OSI-027] (partner 0.5 µM)
Outline: as §1

[8] = compound: CCN1C(=O)C2=CC(=C(N=C2N(C1=O)C3CC3)N)C(=O)N + CS(=O)(=O)N1CCN(Cc2cc3nc(-c4cccc5[nH]ncc45)nc(N4CCOCC4)c3s2)CC1 [Pictilisib] (partner 1 µM)
Outline: as §1

[9] = compound: CCN1C(=O)C2=CC(=C(N=C2N(C1=O)C3CC3)N)C(=O)N + CC1(C)CCC(c2ccc(Cl)cc2)=C(CN2CCN(c3ccc(C(=O)NS(=O)(=O)c4ccc(N[C@H](CCN5CCOCC5)CSc5ccccc5)c(S(=O)(=O)C(F)(F)F)c4)cc3)CC2)C1 [Navitoclax] (partner 0.5 µM)
Outline: as §1

[10] = compound: CCN1C(=O)C2=CC(=C(N=C2N(C1=O)C3CC3)N)C(=O)N + O=C(c1cc(Cc2n[nH]c(=O)c3ccccc23)ccc1F)N1CCN(C(=O)C2CC2)CC1 [Olaparib] (partner 8 µM)
Outline: as §1

[11] = compound: CCN1C(=O)C2=CC(=C(N=C2N(C1=O)C3CC3)N)C(=O)N + CS(=O)(=O)CCNCc1ccc(-c2ccc3ncnc(Nc4ccc(OCc5cccc(F)c5)c(Cl)c4)c3c2)o1 [Lapatinib] (partner 2 µM)
Outline: as §1

[12] = compound: CCN1C(=O)C2=CC(=C(N=C2N(C1=O)C3CC3)N)C(=O)N + C[C@@H](Oc1cc(-c2cnn(C3CCNCC3)c2)cnc1N)c1c(Cl)ccc(F)c1Cl [Crizotinib] (partner 1 µM)
Outline: as §1

[13] = compound: CCN1C(=O)C2=CC(=C(N=C2N(C1=O)C3CC3)N)C(=O)N + C[C@]1(O)C[C@@H](c2nc(-c3ccc4ccc(-c5ccccc5)nc4c3)c3c(N)nccn32)C1 [Linsitinib] (partner 1 µM)
Outline: as §1

[14] = compound: CCN1C(=O)C2=CC(=C(N=C2N(C1=O)C3CC3)N)C(=O)N + Nc1ncn([C@H]2C[C@H](O)[C@@H](CO)O2)c(=O)n1 [Decitabine] (partner 2 µM)
Outline: as §1

[15] = compound: CCN1C(=O)C2=CC(=C(N=C2N(C1=O)C3CC3)N)C(=O)N + Cc1nc(NC(=O)N2CCC[C@H]2C(N)=O)sc1-c1ccnc(C(C)(C)C(F)(F)F)c1 [Alpelisib] (partner 2 µM)
Outline: as §1

[16] = compound: CCN1C(=O)C2=CC(=C(N=C2N(C1=O)C3CC3)N)C(=O)N + CC(C)C[C@H](NC(=O)[C@H](Cc1ccccc1)NC(=O)c1cnccn1)B(O)O [Bortezomib] (partner 0.002 µM)
Outline: as §1

Work on NCI-H1623 yielded a relative viability ([1]; 0.253 µM) of 0.922, a relative viability ([1]; 0.8 µM) of 0.992 and a relative viability ([1]; 2.53 µM) of 1.02. For the same cell line, the relative viability ([1]; 8 µM) was 1.13, the relative viability ([2]; first compound 0.253 µM) was 0.514 and the relative viability ([2]; first compound 0.8 µM) was 0.59. The relative viability ([2]; first compound 2.53 µM) was 0.63, the relative viability ([2]; first compound 8 µM) was 0.567 and the relative viability ([3]; first compound 0.253 µM) was 0.856. For the same cell line, the relative viability ([3]; first compound 0.8 µM) was 0.862, the relative viability ([3]; first compound 2.53 µM) was 0.94 and the relative viability ([3]; first compound 8 µM) was 0.939. The relative viability ([4]; first compound 0.253 µM) was 0.518, the relative viability ([4]; first compound 0.8 µM) was 0.589 and the relative viability ([4]; first compound 2.53 µM) was 0.627. For the same cell line, the relative viability ([4]; first compound 8 µM) was 0.595, the relative viability ([5]; first compound 0.253 µM) was 0.454 and the relative viability ([5]; first compound 0.8 µM) was 0.452. The relative viability ([5]; first compound 2.53 µM) was 0.546, the relative viability ([5]; first compound 8 µM) was 0.473 and the relative viability ([6]; first compound 0.253 µM) was 0.405. It also gave a relative viability ([6]; first compound 0.8 µM) of 0.442, a relative viability ([6]; first compound 2.53 µM) of 0.438 and a relative viability ([6]; first compound 8 µM) of 0.48. The relative viability ([7]; first compound 0.253 µM) was 0.439, the relative viability ([7]; first compound 0.8 µM) was 0.428 and the relative viability ([7]; first compound 2.53 µM) was 0.455. For the same cell line, the relative viability ([7]; first compound 8 µM) was 0.446.

With A549 the relative viability ([1]; 0.253 µM) was 0.985, the relative viability ([1]; 0.8 µM) was 1.02 and the relative viability ([1]; 2.53 µM) was 0.962. It also gave a relative viability ([1]; 8 µM) of 0.956, a relative viability ([8]; first compound 0.253 µM) of 0.557 and a relative viability ([8]; first compound 0.8 µM) of 0.553. For the same cell line, the relative viability ([8]; first compound 2.53 µM) was 0.41, the relative viability ([8]; first compound 8 µM) was 0.592 and the relative viability ([9]; first compound 0.253 µM) was 1.14. The relative viability ([9]; first compound 0.8 µM) was 1.13, the relative viability ([9]; first compound 2.53 µM) was 1.22 and the relative viability ([9]; first compound 8 µM) was 1.16. For the same cell line, the relative viability ([2]; first compound 0.8 µM) was 0.22, the relative viability ([2]; first compound 2.53 µM) was 0.155 and the relative viability ([2]; first compound 8 µM) was 0.155. For the same cell line, the relative viability ([3]; first compound 0.253 µM) was 0.898, the relative viability ([3]; first compound 0.8 µM) was 1.06 and the relative viability ([3]; first compound 2.53 µM) was 0.809. It also gave a relative viability ([3]; first compound 8 µM) of 1.01, a relative viability ([10]; first compound 0.8 µM) of 0.305 and a relative viability ([10]; first compound 2.53 µM) of 0.302. The relative viability ([10]; first compound 8 µM) was 0.392, the relative viability ([11]; first compound 0.253 µM) was 0.981 and the relative viability ([11]; first compound 0.8 µM) was 0.914. The relative viability ([11]; first compound 2.53 µM) was 0.94, the relative viability ([11]; first compound 8 µM) was 1.1 and the relative viability ([12]; first compound 0.253 µM) was 0.712. For the same cell line, the relative viability ([12]; first compound 0.8 µM) was 0.76, the relative viability ([12]; first compound 2.53 µM) was 0.732 and the relative viability ([12]; first compound 8 µM) was 0.886. The relative viability ([13]; first compound 0.8 µM) was 0.605, the relative viability ([13]; first compound 2.53 µM) was 0.505 and the relative viability ([13]; first compound 8 µM) was 0.516. It also gave a relative viability ([14]; first compound 0.253 µM) of 0.215, a relative viability ([14]; first compound 0.8 µM) of 0.341 and a relative viability ([14]; first compound 2.53 µM) of 0.218. The relative viability ([14]; first compound 8 µM) was 0.11, the relative viability ([15]; first compound 0.253 µM) was 0.698 and the relative viability ([15]; first compound 0.8 µM) was 0.858. For the same cell line, the relative viability ([15]; first compound 2.53 µM) was 0.746 and the relative viability ([15]; first compound 8 µM) was 0.931.

Work on NCI-H1299 yielded a relative viability ([1]; 0.253 µM) of 1.02, a relative viability ([1]; 0.8 µM) of 1.02 and a relative viability ([1]; 2.53 µM) of 0.986. For the same cell line, the relative viability ([1]; 8 µM) was 0.976, the relative viability ([16]; first compound 0.253 µM) was 1.01 and the relative viability ([16]; first compound 0.8 µM) was 1.01. For the same cell line, the relative viability ([16]; first compound 2.53 µM) was 1, the relative viability ([16]; first compound 8 µM) was 0.999 and the relative viability ([8]; first compound 0.253 µM) was 0.879. It also gave a relative viability ([8]; first compound 0.8 µM) of 0.81, a relative viability ([8]; first compound 2.53 µM) of 0.701 and a relative viability ([8]; first compound 8 µM) of 0.962. For the same cell line, the relative viability ([9]; first compound 0.253 µM) was 1.07, the relative viability ([9]; first compound 0.8 µM) was 1.06 and the relative viability ([9]; first compound 2.53 µM) was 1.04. It also gave a relative viability ([9]; first compound 8 µM) of 1.01, a relative viability ([3]; first compound 0.253 µM) of 1.16 and a relative viability ([3]; first compound 0.8 µM) of 1.1. The relative viability ([3]; first compound 2.53 µM) was 1.08, the relative viability ([3]; first compound 8 µM) was 1.05 and the relative viability ([10]; first compound 0.253 µM) was 0.922. It also gave a relative viability ([10]; first compound 0.8 µM) of 0.956, a relative viability ([10]; first compound 2.53 µM) of 0.918 and a relative viability ([10]; first compound 8 µM) of 0.942. The relative viability ([11]; first compound 0.253 µM) was 1.06, the relative viability ([11]; first compound 0.8 µM) was 0.978 and the relative viability ([11]; first compound 2.53 µM) was 0.933. For the same cell line, the relative viability ([11]; first compound 8 µM) was 0.947, the relative viability ([12]; first compound 0.253 µM) was 1 and the relative viability ([12]; first compound 0.8 µM) was 0.914. The relative viability ([12]; first compound 2.53 µM) was 0.924, the relative viability ([12]; first compound 8 µM) was 0.966 and the relative viability ([13]; first compound 0.253 µM) was 0.991. For the same cell line, the relative viability ([13]; first compound 0.8 µM) was 0.98, the relative viability ([13]; first compound 2.53 µM) was 0.93 and the relative viability ([13]; first compound 8 µM) was 0.982. The relative viability ([15]; first compound 0.253 µM) was 1.01, the relative viability ([15]; first compound 0.8 µM) was 1.15 and the relative viability ([15]; first compound 2.53 µM) was 1.05. For the same cell line, the relative viability ([15]; first compound 8 µM) was 1.08.
